# Where two headings read alike, the source gives them in different places.
# Assay: Phase I study CXR1002-001: plasma pharmacokinetics (LC-MS/MS)
# Assay type: in vivo, human
# Details: human, plasma, oral, person, plasma, read-out: Concentration; for concentration at 168 h: 168 hr (Day 8); for concentration at 192 h: 192 hr (Day 9); for concentration at 336 h: 336 hr (Day 15); for concentration at 360 h: 360 hr (Day 16); for concentration at 504 h: 504 hr (Day 22); for concentration at 528 h: 528 hr (Day 23); for concentration at 672 h: 672 hr (Day 29); for concentration at 696 h: 696 hr (Day 30); for concentration at 840 h: 840 hr (Day 36); for concentration at 24 h: 24 hr (Day 2); for concentration at 864 h: 864 hr (Day 37)
# Excerpt: PK samples, PD (fasting) samples, blood glucose, and blood triglyceride samples, were taken over a 6-week period.
# Dose limiting toxicity (DLT) will be based on the toxicity assessments over the first 3-week period of the repeat dosing schedule. PK samples (single blood sample) were taken on the following basis: • Every 6 weeks during the repeat dosing phase • If dosing is interrupted or stopped, samples will be taken at intervals according to patient convenience • PK sampling for safety evaluation may take place at any time, as clinically indicated
# Plasma samples were collected after the single 50 mg dose at the following timepoints: Pre-dose, and then 0.25, 0.5, 0.75, 1, 1.5, 2, 3, 4, 6, 24, 48, and 72 hours after administration and then once weekly at weeks 2, 3, 4, 5, and 6 (days 8, 15, 22, 29, and 36). For patients treated with the weekly repeat dose, plasma samples were collected at the following timepoints: Pre-dose and then 2, 3, 4 and 24 hours after administration for a total of 6 weeks. Thereafter a single sample was collected every 6 weeks for monitoring of exposure during long term treatment. Plasma samples were processed at site and stored at −80° C. prior to batch shipment to the analytical laboratory.
compound,measurement,setting,value
O=C(O)C(F)(F)C(F)(F)C(F)(F)C(F)(F)C(F)(F)C(F)(F)C(F)(F)F [CXR1002],concentration at 168 h,"750 mg, Patient 027, 750 mg",168 µM
same,concentration at 170 h,"750 mg, Patient 027, 750 mg",235 µM
same,concentration at 171 h,"750 mg, Patient 027, 750 mg",318 µM
same,concentration at 172 h,"750 mg, Patient 027, 750 mg",344 µM
same,concentration at 192 h,"750 mg, Patient 027, 750 mg",411 µM
same,concentration at 336 h,"750 mg, Patient 027, 750 mg",366 µM
same,concentration at 338 h,"750 mg, Patient 027, 750 mg",384 µM
same,concentration at 339 h,"750 mg, Patient 027, 750 mg",412 µM
same,concentration at 340 h,"750 mg, Patient 027, 750 mg",451 µM
same,concentration at 360 h,"750 mg, Patient 027, 750 mg",569 µM
same,concentration at 504 h,"750 mg, Patient 027, 750 mg",476 µM
same,concentration at 506 h,"750 mg, Patient 027, 750 mg",658 µM
same,concentration at 507 h,"750 mg, Patient 027, 750 mg",669 µM
same,concentration at 508 h,"750 mg, Patient 027, 750 mg",671 µM
same,concentration at 528 h,"750 mg, Patient 027, 750 mg",720 µM
same,concentration at 672 h,"750 mg, Patient 027, 750 mg",606 µM
same,concentration at 674 h,"750 mg, Patient 027, 750 mg",769 µM
same,concentration at 675 h,"750 mg, Patient 027, 750 mg",811 µM
same,concentration at 676 h,"750 mg, Patient 027, 750 mg",757 µM
same,concentration at 696 h,"750 mg, Patient 027, 750 mg",803 µM
same,concentration at 840 h,"750 mg, Patient 027, 750 mg",673 µM
same,concentration at 2 h,"750 mg, Patient 028, 750 mg",207 µM
same,concentration at 3 h,"750 mg, Patient 028, 750 mg",174 µM
same,concentration at 4 h,"750 mg, Patient 028, 750 mg",160 µM
same,concentration at 24 h,"750 mg, Patient 028, 750 mg",160 µM
same,concentration at 168 h,"750 mg, Patient 028, 750 mg",161 µM
same,concentration at 170 h,"750 mg, Patient 028, 750 mg",321 µM
same,concentration at 171 h,"750 mg, Patient 028, 750 mg",301 µM
same,concentration at 172 h,"750 mg, Patient 028, 750 mg",273 µM
same,concentration at 192 h,"750 mg, Patient 028, 750 mg",295 µM
same,concentration at 336 h,"750 mg, Patient 028, 750 mg",288 µM
same,concentration at 338 h,"750 mg, Patient 028, 750 mg",473 µM
same,concentration at 339 h,"750 mg, Patient 028, 750 mg",396 µM
same,concentration at 340 h,"750 mg, Patient 028, 750 mg",406 µM
same,concentration at 360 h,"750 mg, Patient 028, 750 mg",450 µM
same,concentration at 504 h,"750 mg, Patient 028, 750 mg",467 µM
same,concentration at 506 h,"750 mg, Patient 028, 750 mg",582 µM
same,concentration at 507 h,"750 mg, Patient 028, 750 mg",490 µM
same,concentration at 508 h,"750 mg, Patient 028, 750 mg",581 µM
same,concentration at 528 h,"750 mg, Patient 028, 750 mg",655 µM
same,concentration at 672 h,"750 mg, Patient 028, 750 mg",522 µM
same,concentration at 674 h,"750 mg, Patient 028, 750 mg",710 µM
same,concentration at 675 h,"750 mg, Patient 028, 750 mg",713 µM
same,concentration at 676 h,"750 mg, Patient 028, 750 mg",700 µM
same,concentration at 696 h,"750 mg, Patient 028, 750 mg",758 µM
same,concentration at 840 h,"750 mg, Patient 028, 750 mg",682 µM
same,concentration at 842 h,"750 mg, Patient 028, 750 mg",824 µM
same,concentration at 843 h,"750 mg, Patient 028, 750 mg, 843 hr",792 µM
same,concentration at 844 h,"750 mg, Patient 028, 750 mg, 844 hr",853 µM
same,concentration at 864 h,"750 mg, Patient 028, 750 mg",775 µM
same,concentration at 2 h,"950 mg, Patient 029, 950 mg",219 µM
same,concentration at 3 h,"950 mg, Patient 029, 950 mg",251 µM
same,concentration at 4 h,"950 mg, Patient 029, 950 mg",307 µM
same,concentration at 24 h,"950 mg, Patient 029, 950 mg",353 µM
same,concentration at 168 h,"950 mg, Patient 029, 950 mg",289 µM
same,concentration at 170 h,"950 mg, Patient 029, 950 mg",604 µM
same,concentration at 171 h,"950 mg, Patient 029, 950 mg",602 µM
same,concentration at 172 h,"950 mg, Patient 029, 950 mg",556 µM
same,concentration at 192 h,"950 mg, Patient 029, 950 mg",606 µM
same,concentration at 336 h,"950 mg, Patient 029, 950 mg",439 µM
same,concentration at 338 h,"950 mg, Patient 029, 950 mg",704 µM
same,concentration at 339 h,"950 mg, Patient 029, 950 mg",777 µM
same,concentration at 340 h,"950 mg, Patient 029, 950 mg",674 µM
same,concentration at 360 h,"950 mg, Patient 029, 950 mg",896 µM
same,concentration at 504 h,"950 mg, Patient 029, 950 mg",400 µM
same,concentration at 506 h,"950 mg, Patient 029, 950 mg",897 µM
same,concentration at 507 h,"950 mg, Patient 029, 950 mg",741 µM
same,concentration at 508 h,"950 mg, Patient 029, 950 mg",701 µM
same,concentration at 528 h,"950 mg, Patient 029, 950 mg",781 µM
same,concentration at 672 h,"950 mg, Patient 029, 950 mg",492 µM
same,concentration at 674 h,"950 mg, Patient 029, 950 mg",841 µM
same,concentration at 675 h,"950 mg, Patient 029, 950 mg",972 µM
same,concentration at 676 h,"950 mg, Patient 029, 950 mg",812 µM
same,concentration at 696 h,"950 mg, Patient 029, 950 mg",949 µM
same,concentration at 840 h,"950 mg, Patient 029, 950 mg",777 µM
same,concentration at 842 h,"950 mg, Patient 029, 950 mg",793 µM
same,concentration at 864 h,"950 mg, Patient 029, 950 mg",1040 µM
same,concentration at 3 h,"950 mg, Patient 030, 950 mg",219 µM
same,concentration at 4 h,"950 mg, Patient 030, 950 mg",333 µM
same,concentration at 24 h,"950 mg, Patient 030, 950 mg",214 µM
same,concentration at 2 h,"950 mg, Patient 031, 950 mg",267 µM
same,concentration at 3 h,"950 mg, Patient 031, 950 mg",338 µM
same,concentration at 4 h,"950 mg, Patient 031, 950 mg",336 µM
same,concentration at 24 h,"950 mg, Patient 031, 950 mg",348 µM
same,concentration at 168 h,"950 mg, Patient 031, 950 mg",237 µM
same,concentration at 170 h,"950 mg, Patient 031, 950 mg",513 µM
same,concentration at 171 h,"950 mg, Patient 031, 950 mg",463 µM
same,concentration at 172 h,"950 mg, Patient 031, 950 mg",427 µM
same,concentration at 192 h,"950 mg, Patient 031, 950 mg",516 µM
same,concentration at 336 h,"950 mg, Patient 031, 950 mg",554 µM
same,concentration at 338 h,"950 mg, Patient 031, 950 mg",668 µM
same,concentration at 339 h,"950 mg, Patient 031, 950 mg",715 µM
same,concentration at 340 h,"950 mg, Patient 031, 950 mg",697 µM
same,concentration at 360 h,"950 mg, Patient 031, 950 mg",800 µM
same,concentration at 504 h,"950 mg, Patient 031, 950 mg",755 µM
same,concentration at 506 h,"950 mg, Patient 031, 950 mg",794 µM
same,concentration at 507 h,"950 mg, Patient 031, 950 mg",861 µM
same,concentration at 508 h,"950 mg, Patient 031, 950 mg",998 µM
same,concentration at 528 h,"950 mg, Patient 031, 950 mg",958 µM
same,concentration at 672 h,"950 mg, Patient 031, 950 mg",813 µM
same,concentration at 674 h,"950 mg, Patient 031, 950 mg",921 µM
same,concentration at 675 h,"950 mg, Patient 031, 950 mg",882 µM
same,concentration at 676 h,"950 mg, Patient 031, 950 mg",938 µM
same,concentration at 696 h,"950 mg, Patient 031, 950 mg",1030 µM
same,concentration at 2 h,"950 mg, Patient 032, 950 mg",292 µM
same,concentration at 3 h,"950 mg, Patient 032, 950 mg",191 µM
same,concentration at 4 h,"950 mg, Patient 032, 950 mg",231 µM
same,concentration at 24 h,"950 mg, Patient 032, 950 mg",161 µM
same,concentration at 168 h,"950 mg, Patient 032, 950 mg",192 µM
same,concentration at 170 h,"950 mg, Patient 032, 950 mg",439 µM
same,concentration at 171 h,"950 mg, Patient 032, 950 mg",478 µM
same,concentration at 172 h,"950 mg, Patient 032, 950 mg",517 µM
same,concentration at 192 h,"950 mg, Patient 032, 950 mg",495 µM
same,concentration at 2 h,"1000 mg, Patient 040, 1000 mg",188 µM
same,concentration at 3 h,"1000 mg, Patient 040, 1000 mg",168 µM

# — patent US20130029928A1 (priority 2010, published 2013)
